From patent US10981879B2, “Thioether triazolopyridine and triazolopyrimidine inhibitors of myeloperoxidase” (BRISTOL-MYERS SQUIBB COMPANY, priority 2014, dated 2021)

target: myeloperoxidase (MPO) (Homo sapiens (Human), UniProt P05164); assay: MPO chlorination assay (APF); assay type: biochemical; conditions: MPO chlorination assay, ranges given; read-out: MPO chlorination assay IC50
Description: MPO chlorination activity was measured in 100 mM KPi (pH 7.4) by utilizing the non-fluorescent reagent Aminophenyl fluorescein (APF, Invitrogen catalog #A36003). APF is cleaved by (—OCl) to yield the fluorescent compound fluorescein. Reactions were carried out in 50 μL total volume by adding a 25 μL mixture of 200 pM myeloperoxidase and 120 mM NaCl to 100 nL inhibitor in 100% DMSO in a 384 well, non-binding surface clear bottom plate (CORNING® #3655). Enzyme, inhibitor, and chloride were preincubated for ten minutes at rt.
After the ten minute preincubation, 25 μL of an APF mixture containing […], 120 mM NaCl and 10 μM H2O2 was added to the plate using the internal dispensing system of a Hammatsu FDSS 6000. Kinetic determinations were carried out immediately on the FDSS 6000 (3 minute kinetic read, 1 read every second, ex: 485 nm, em: 535 nm). IC50 values for inhibitors were calculated by taking the slope of the linear portion of the kinetic measurement (20 seconds to ˜80-120 secs). […]
[formula] where A=minimal Y value (activity level of inhibited sample), B=maximal Y value (activity level of uninhibited sample), C=Log IC50, D=Hill Slope, x=concentration of inhibitor. EPX Bromination Assay

Chain of myeloperoxidase (MPO) (P05164 49-745): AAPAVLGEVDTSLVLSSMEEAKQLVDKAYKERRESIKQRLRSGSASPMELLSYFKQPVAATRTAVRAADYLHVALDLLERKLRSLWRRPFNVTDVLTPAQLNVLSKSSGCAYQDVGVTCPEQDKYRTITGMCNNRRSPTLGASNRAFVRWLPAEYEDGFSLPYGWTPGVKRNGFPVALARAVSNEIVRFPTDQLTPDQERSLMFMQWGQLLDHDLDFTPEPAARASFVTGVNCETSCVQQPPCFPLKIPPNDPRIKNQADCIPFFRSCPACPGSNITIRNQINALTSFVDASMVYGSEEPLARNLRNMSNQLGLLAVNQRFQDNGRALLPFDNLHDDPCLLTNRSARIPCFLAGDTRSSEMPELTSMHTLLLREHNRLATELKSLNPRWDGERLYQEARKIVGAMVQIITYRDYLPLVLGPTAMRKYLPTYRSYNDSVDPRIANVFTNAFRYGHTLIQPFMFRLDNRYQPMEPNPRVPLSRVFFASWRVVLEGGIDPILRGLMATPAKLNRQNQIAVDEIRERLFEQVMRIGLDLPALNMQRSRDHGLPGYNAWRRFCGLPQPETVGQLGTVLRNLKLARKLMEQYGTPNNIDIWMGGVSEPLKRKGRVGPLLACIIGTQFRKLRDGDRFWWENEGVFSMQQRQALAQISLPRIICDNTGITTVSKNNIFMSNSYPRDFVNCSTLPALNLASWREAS

Row | Compound | IC50
1 | Nc1cc(SCc2cccc3cccnc23)c2nn[nH]c2n1 [Example 125, 7-((quinolin-8-ylmethyl)thio)-3H-[1,2,3] triazolo[4,5-b]pyridin-5-amine] | ≤ 60 nM
2 | Cn1nc(-c2ccccc2)c(Cl)c1CSc1cc(N)nc2[nH]nnc12 [Example 112, 7-(((4-chloro-1-methyl-3-phenyl-1H-pyrazol-5-yl)methyl)thio)-3H-[1,2,3] triazolo[4,5-b]pyridin-5-amine] | ≤ 60 nM
3 | CS(=O)(=O)c1ccc(F)cc1CSc1cc(N)nc2[nH]nnc12 [Example 53, 7-((5-fluoro-2-(methylsulfonyl)benzyl)thio)-3H-[1,2,3]triazolo[4,5-b]pyridin-5-amine] | 60 to 200 nM
4 | COc1cccc(-n2nc(C)c(CSc3cc(N)nc4[nH]nnc34)n2)c1 [Example 69, 7-(((2-(3-methoxyphenyl)-5-methyl-2H-1,2,3-triazol-4-yl)methyl)thio)-3H-[1,2,3] triazolo[4,5-b]pyridin-5-amine] | 200 to 1000 nM
5 | N#Cc1c(Cl)cccc1CSc1cc(N)nc2[nH]nnc12 [Example 75, 2-(((5-amino-3H-[1,2,3]triazolo[4,5-b]pyridin-7-yl)thio)methyl)-6-chlorobenzonitrile] | 60 to 200 nM
6 | CN(C)Cc1cccc(CSc2cc(N)nc3[nH]nnc23)c1 [Example 93, 7-((3-((dimethylamino)methyl)benzyl)thio)-3H-[1,2,3]triazolo[4,5-b]pyridin-5-amine] | ≤ 60 nM
7 | Cn1nc(-c2ccccc2)cc1CSc1cc(N)nc2[nH]nnc12 [Example 33, 7-(((1-methyl-3-phenyl-1H-pyrazol-5-yl)methyl)thio)-3H-[1,2,3]triazolo[4,5-b] pyridin-5-amine] | 60 to 200 nM
8 | Cc1nn(C)c(Cl)c1CSc1cc(N)nc2[nH]nnc12 [Example 60, 7-(((5-chloro-1,3-dimethyl-1H-pyrazol-4-yl)methyl)thio)-3H-[1,2,3]triazolo[4,5-b]pyridin-5-amine] | ≤ 60 nM
9 | CCn1nc(C(F)(F)F)cc1CSc1cc(N)nc2[nH]nnc12 [Example 36, 7-(((1-ethyl-3-(trifluoromethyl)-1H-pyrazol-5-yl)methyl)thio)-3H-[1,2,3]triazolo[4,5-b] pyridin-5-amine] | 200 to 1000 nM
10 | Nc1cc(SCc2ccccc2C(F)(F)F)c2nn[nH]c2n1 [Example 5, 7-((2-(trifluoromethyl)benzyl)thio)-3H-[1,2,3] triazolo[4,5-b]pyridin-5-amine] | ≤ 60 nM
11 | Nc1cc(SCc2nn(Cc3ccccc3)c3ccccc23)c2nn[nH]c2n1 [Example 62, 7-(((1-benzyl-1H-indazol-3-yl)methyl)thio)-3H-[1,2,3] triazolo[4,5-b]pyridin-5-amine] | 60 to 200 nM
12 | Nc1cc(SCc2cnn(Cc3ccccc3)c2)c2nn[nH]c2n1 [Example 32, 7-(((1-benzyl-1H-pyrazol-4-yl)methyl)thio)-3H-[1,2,3] triazolo[4,5-b]pyridin-5-amine] | 60 to 200 nM
13 | Nc1cc(SC(c2ccccc2)C(F)(F)F)c2nn[nH]c2n1 (centres unmarked) [Example 38, 7-((2,2,2-trifluoro-1-phenylethyl)thio)-3H-[1,2,3] triazolo[4,5-b]pyridin-5-amine] | 200 to 1000 nM
14 | N#Cc1ccc(Cl)cc1CSc1cc(N)nc2[nH]nnc12 [Example 73, 2-(((5-amino-3H-[1,2,3]triazolo[4,5-b]pyridin-7-yl)thio)methyl)-4-chlorobenzonitrile] | 60 to 200 nM
15 | Nc1cc(SCc2cccc(CO)n2)c2nn[nH]c2n1 [Example 25, (6-(((5-amino-3H-[1,2,3]triazolo[4,5-b]pyridin-7-yl)thio)methyl)pyridin-2-yl) methanol] | 60 to 200 nM
16 | N#Cc1cccc(CSc2cc(N)nc3[nH]nnc23)c1 [Example 91, 3-(((5-amino-3H-[1,2,3]triazolo[4,5-b]pyridin-7-yl)thio)methyl)benzonitrile] | ≤ 60 nM
17 | Cn1nc(-c2ccccc2)c(F)c1CSc1cc(N)nc2[nH]nnc12 [Example 17, 7-(((4-Fluoro-1-methyl-3-phenyl-1H-pyrazol-5-yl)methyl)thio)-3H-[1,2,3]triazolo[4,5-b]pyridin-5-amine] | ≤ 60 nM
18 | Cc1cc(CSc2cc(N)nc3[nH]nnc23)c(Cl)nc1Cl [Example 24, 7-(((2,6-dichloro-5-methylpyridin-3-yl)methyl)thio)-3H-[1,2,3]triazolo[4,5-b]pyridin-5-amine] | 60 to 200 nM
19 | Cc1nn(CC2CC2)c(C)c1CSc1cc(N)nc2[nH]nnc12 [Example 80, 7-(((1-(cyclopropylmethyl)-3,5-dimethyl-1H-pyrazol-4-yl)methyl)thio)-3H-[1,2,3] triazolo[4,5-b]pyridin-5-amine] | 60 to 200 nM
20 | Cn1nc(C2CC2)c(F)c1CSc1cc(N)nc2[nH]nnc12 [Example 16, 7-(((3-Cyclopropyl-4-fluoro-1-methyl-1H-pyrazol-5-yl)methyl)thio)-3H-[1,2,3]triazolo[4,5-b]pyridin-5-amine] | 60 to 200 nM
21 | Nc1cc(SCc2c(F)ccc(Br)c2F)c2nn[nH]c2n1 [Example 43, 7-((3-bromo-2,6-difluorobenzyl)thio)-3H-[1,2,3]triazolo[4,5-b]pyridin-5-amine] | ≤ 60 nM
22 | Cc1nn(C2CC2)c(C)c1CSc1cc(N)nc2[nH]nnc12 [Example 81, 7-(((1-cyclopropyl-3,5-dimethyl-1H-pyrazol-4-yl)methyl)thio)-3H-[1,2,3] triazolo[4,5-b]pyridin-5-amine] | 60 to 200 nM
23 | N#Cc1ccc(-n2cccn2)cc1CSc1cc(N)nc2[nH]nnc12 [Example 12, 2-(((5-Amino-3H-[1,2,3]triazolo[4,5-b]pyridin-7-yl)thio)methyl)-4-(1H-pyrazol-1-yl)benzonitrile] | ≤ 60 nM
24 | N#Cc1cc(Cl)ccc1CSc1cc(N)nc2[nH]nnc12 [Example 74, 2-(((5-amino-3H-[1,2,3]triazolo[4,5-b]pyridin-7-yl)thio)methyl)-5-chlorobenzonitrile] | ≤ 60 nM
25 | CS(=O)(=O)c1cc(Br)cc(F)c1CSc1cc(N)nc2[nH]nnc12 [Example 42, 7-((4-bromo-2-fluoro-6-(methylsulfonyl)benzyl)thio)-3H-[1,2,3]triazolo[4,5-b]pyridin-5-amine] | ≤ 60 nM

More lines, now with the values ahead:

Row | IC50 | Compound
26 | 60 to 200 nM | CCOC(=O)C(Sc1cc(N)nc2[nH]nnc12)c1ccccc1 (centres unmarked) [Example 106, ethyl 2-((5-amino-3H-[1,2,3]triazolo[4,5-b]pyridin-7-yl)thio)-2-phenylacetate]
27 | 200 to 1000 nM | NC(=O)c1ccc(CSc2cc(N)nc3[nH]nnc23)c(F)c1 [Example 120, 4-(((5-amino-3H-[1,2,3]triazolo[4,5-b]pyridin-7-yl)thio)methyl)-3-fluorobenzamide]
28 | 60 to 200 nM | CC(Sc1cc(N)nc2[nH]nnc12)c1cccnc1 (centres unmarked) [Example 107, 7-((1-(pyridin-3-yl)ethyl)thio)-3H-[1,2,3]triazolo[4,5-b]pyridin-5-amine]
29 | 200 to 1000 nM | N#Cc1cn(-c2ccccc2)nc1CSc1cc(N)nc2[nH]nnc12 [Example 147, 3-(((5-amino-3H-[1,2,3]triazolo[4,5-b]pyridin-7-yl)thio)methyl)-1-phenyl-1H-pyrazol-4-carbonitrile]
30 | 60 to 200 nM | CN(C)Cc1ccc(F)c(CSc2cc(N)nc3[nH]nnc23)c1 [Example 99, 7-((5-((dimethylamino)methyl)-2-fluorobenzyl)thio)-3H-[1,2,3]triazolo[4,5-b]pyridin-5-amine]
31 | 60 to 200 nM | CN(C)CCNC(=O)c1cccc(-n2cc(CSc3cc(N)nc4[nH]nnc34)c(C(F)F)n2)c1 [Example 149, 3-(4-(((5-amino-3H-[1,2,3]triazolo[4,5-b]pyridin-7-yl)thio)methyl)-3-(difluoromethyl)-1H-pyrazol-1-yl)-N-(2-(dimethylamino)ethyl) benzamide]
32 | 60 to 200 nM | N#Cc1ccc(OC2CC2)cc1CSc1cc(N)nc2[nH]nnc12 [Example 110, 2-(((5-amino-3H-[1,2,3]triazolo[4,5-b]pyridin-7-yl)thio)methyl)-4-cyclopropoxybenzonitrile]
33 | 200 to 1000 nM | Cn1ncc2c(CSc3nc(N)nc4[nH]nnc34)cccc21 [Example 162, 7-(((1-methyl-1H-indazol-4-yl)methyl)thio)-3H-[1,2,3]triazolo[4,5-d] pyrimidin-5-amine]
34 | 200 to 1000 nM | Cn1nc(C(F)(F)F)c(CSc2nc(N)nc3[nH]nnc23)c1F [Example 160, 7-(((5-fluoro-1-methyl-3-(trifluoromethyl)-1H-pyrazol-4-yl)methyl)thio)-3H-[1,2,3]triazolo[4,5-d] pyrimidin-5-amine]
35 | 60 to 200 nM | Cc1nn(C2CCC2)c(C)c1CSc1cc(N)nc2[nH]nnc12 [Example 82, 7-(((1-cyclobutyl-3,5-dimethyl-1H-pyrazol-4-yl)methyl)thio)-3H-[1,2,3] triazolo[4,5-b]pyridin-5-amine]
36 | 200 to 1000 nM | N#Cc1ccc(F)cc1CSc1nc(N)nc2[nH]nnc12 [Example 157, 2-(((5-amino-3H-[1,2,3]triazolo[4,5-d]pyrimidin-7-yl)thio)methyl)-4-fluorobenzonitrile]
37 | 60 to 200 nM | N#Cc1cccc(F)c1CSc1nc(N)nc2[nH]nnc12 [Example 154, 2-(((5-Amino-3H-[1,2,3]triazolo[4,5-d]pyrimidin-7-yl)thio)methyl)-3-fluorobenzonitrile]
38 | 60 to 200 nM | Nc1cc(SC(CNCc2ccccc2)c2ccccc2)c2nn[nH]c2n1 (centres unmarked) [Example 128, 7-((2-(Benzylamino)-1-phenylethyl)thio)-3H-[1,2,3]triazolo[4,5-b]pyridin-5-amine]
